Experiment: gradient 5% acetonitrile 3 min, to 50% in 2 min, to 85% in 15 min, held 3 min, 100 µL/min
Settings: column: Zorbax Extend-C18 2.1 x 50 mm; eluents: water / acetonitrile, 0.1% formic acid
Outline: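 Retention times come from adduct peaks that were picked computationally and then checked by hand. The standards, pure and pooled in mixtures of ~100 molecules, were run on a Zorbax Extend-C18 column (2.1 × 50 mm, 1.8 μm) at 100 μL/min with water and acetonitrile, each with 0.1% formic acid. Detection was by quadrupole time-of-flight mass spectrometry in positive and negative ionization mode, with a dead volume of 40 μL and a dwell volume of 900 μL.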

RP-LC retention time [s] | Compound
661 | O=C(c1cc(-c2ccncc2)n[nH]1)N1CCCC(C(=O)N2CCN(c3ccc(Cl)cc3)CC2)C1 (stereo not drawn)
1090 | CCCn1nnc(NCc2ccc(-c3cccc(Cl)c3)o2)n1
924 | CCc1noc(-c2ccc(-n3cnc(C(=O)N4CCc5ccccc5C4)c3)nc2)n1
602 | CCCN1CCN(CCCNC(=O)c2c(N3CCCC3=O)c3cc(F)ccc3n2CC)CC1
596 | CCOC(=O)c1nc(N2CCN(c3ccccn3)CC2)c2c(C)noc2n1
684 | COC(=O)C1=C(C)NC2=C(C(=O)CC(C)(C)C2)C1c1cc(OC)c(OC)c(OC)c1 (stereo not drawn)
771 | COc1ccccc1C1(CNC(=O)NC2CCCCC2)CCOCC1
764 | O=C(Cc1cccs1)NCCS(=O)(=O)N1CCc2ccccc2C1
1000 | CCc1ccc(C(=O)Nc2nnc(SCc3nnc(-c4ccccc4)o3)s2)cc1
864 | COc1ccc(C)cc1NC(=O)C1CCCN(c2ncnc3c2nc2n3CCCCC2)C1 (stereo not drawn)
935 | C[C@@H]1CN(C(=O)c2ccsc2)C[C@H]1c1nc(-c2ccccc2)no1
630 | COc1ccc(-c2cn3c(CC(=O)Nc4ccc(S(N)(=O)=O)cc4)csc3n2)cc1OC
640 | O=C(COC(=O)c1cccnc1)Nc1ccc2c(c1)OCO2
623 | CC1CCN(S(=O)(=O)c2ccc(-c3nnc(C(=O)NCCCN4CCN(C)CC4)o3)cc2)CC1
1030 | CCc1noc(C2(NC(=O)c3ccc(Br)cc3)CCCCC2)n1
1100 | CCOc1ccc(NC(=O)C2CCCN(c3nccnc3Sc3ccccc3)C2)cc1 (stereo not drawn)
626 | COc1cc([C@H]2c3cc4c(cc3[C@@H](O)[C@H](CO)[C@H]2C(=O)Nc2cnccn2)OCO4)cc(OC)c1OC
927 | O=C(NCCc1c[nH]c2ccc(Cl)cc12)c1cc2n(n1)CCCN(Cc1ccc(F)cc1)C2=O
770 | CC(=O)N1CCc2cc(N3CC(C(=O)Nc4ccc(Br)cc4)CC3=O)ccc21 (stereo not drawn)
691 | Cc1cc(NS(=O)(=O)c2cc(-c3[nH]ncc3C(=O)N3CCOCC3)oc2C)ccc1F
863 | Cc1ccc(S(=O)(=O)N2CCC(n3c(-c4ccco4)nc4cccnc43)C2)cc1 (stereo not drawn)
1360 | COc1ccccc1-c1csc(NC(=O)c2sc(COc3ccc(Cl)c(C)c3)nc2C)n1

RP-LC retention time [s] | Compound
885 | CCn1cc(C2=CCN(C(=O)Nc3ccc(OC)c(F)c3)CC2)c2cccnc21
979 | O=C(NCCc1c[nH]c2ccccc12)c1ccc(N2CCCC2)c(S(=O)(=O)N2CCCC2)c1
830 | COc1c(NC(C)=O)c2ccccc2c2ccccc12
1010 | Cc1c(Cl)cccc1N1C(=O)CN(S(C)(=O)=O)CC1(C)C(=O)NC1CCCCCCC1 (stereo not drawn)
611 | Cc1nc2ccn(Cc3cccs3)c(=O)c2cc1C(=O)N1CCN(c2ccccn2)CC1
525 | CCN1CCN(C(=O)C2CCN(CCc3cn(CC)c4ncccc34)CC2)CC1
611 | O=C(Nc1nnc(SCc2cn3ccccc3n2)s1)C1(c2cccs2)CCCC1
664 | Cc1ccc(CNC(=O)CN2C(=O)C3CCCCN3c3ccc(C(=O)N4CCCC4)cc32)o1 (stereo not drawn)
597 | CCCN1CCN(CCCNC(=O)c2ccc3c(c2)N(C)C(=O)C2CCCCN32)CC1 (stereo not drawn)
700 | Cc1ccc(CNC(=O)CCc2c(C)nn(-c3cc(N4CCOCC4)ncn3)c2C)o1
730 | O=C(CSc1ccc(N2CCOCC2)nn1)Nc1ccccc1Cl
882 | Clc1ccc2nc(N3CCOCC3)nc(-c3ccccc3)c2c1
679 | Cc1nc2nc(-c3ccccc3)nn2c(C)c1CC(=O)N1CCCC1
796 | Cc1ccc(CNC(=O)c2ccc3c(c2)Sc2ncccc2C(=O)N3C)cc1
613 | O=C1CCN(C(=O)Nc2ccccc2)CCOCCN1
644 | CC1=C(C(=O)NCCCOC(C)C)C2(CCN(Cc3ccccc3)CC2)OC1=O
558 | O=C(NCc1c[nH]c2ncccc12)C1CCC1
758 | O=C(NC1CCCCC1)C1CCCN(c2ncnc3c2oc2ccccc23)C1 (stereo not drawn)
751 | COc1cc(NC(=O)C2CCN(S(=O)(=O)c3cn(C(C)C)cn3)CC2)cc(OC)c1
693 | Cc1cc(C)cc(Nc2c(C(=O)N3CCC(C)CC3)cnc3nc(C)ccc23)c1
838 | O=C(CN1CCc2ccccc2C1C(=O)N1CCCC1)NCc1cccc(C(F)(F)F)c1 (stereo not drawn)
773 | COc1cc(NC(=O)NC2COc3ccccc3C2)cc(OC)c1OC (stereo not drawn)

RP-LC retention time [s] | Compound
747 | CCc1cc(=O)n(CC(=O)Nc2cc(C)ccc2C)c(N2CCOCC2)n1
630 | O=C(NCc1ccc(Br)cc1)c1ccc(=O)n(CCN2CCCC2)c1
596 | O=C(c1ccc2c(c1)OCO2)N1CCN(c2nc(CN3CCOCC3)cs2)CC1
866 | COc1ccc(C(=O)CC(SCCO)c2ccc(Cl)cc2)cc1 (stereo not drawn)
705 | CCCNC(=O)C1CCCN(c2nc3ncn(CC(=O)Nc4cc(F)ccc4C)c(=O)c3s2)C1 (stereo not drawn)
989 | O=C(Nc1nc(-c2ccccc2)ns1)c1ccccc1Cl
728 | Cc1cc(C(=O)NCCCC(=O)Nc2cccc3cccnc23)c(C)o1
749 | CC(=O)c1ccc(NC(=O)CCc2c(C)nn(-c3cc(N(C)C)ncn3)c2C)cc1
828 | CCCCNC(=O)C1CCCN(C(=O)c2cc(C)cc(C)c2)C1 (stereo not drawn)
606 | Cn1c(C2CCN(C(=O)c3ccsc3)C2)nc2cccnc21 (stereo not drawn)
747 | CCCN(CCC)CCCNC(=O)C1CCCN(c2ncc(-c3cccc(F)c3)cn2)C1 (stereo not drawn)
912 | O=C(NCc1ccco1)Nc1cccc(-c2noc(C3CCC3)n2)c1
596 | Cc1ccsc1C(=O)NCCn1c(C)cnc1C1CCC1
808 | CCc1noc(NC(C)=O)c1-c1ccc(C)c(S(=O)(=O)NC2CCCC2)c1
868 | CCn1cnc(S(=O)(=O)N2CCC(C(=O)N3CCN(c4cccc(C(F)(F)F)c4)CC3)CC2)c1
681 | CN(C(=O)Nc1ccccc1)C1CCc2nn(CC3CC3)c(=O)n2CC1 (stereo not drawn)
995 | CCc1ccc(NC(=O)N2CCc3nc(-c4ccc(OC)cc4)ncc3C2)cc1
589 | Cc1ccc(-n2nc3c(N4CCCC(C(=O)NCCN5CCOCC5)C4)nnc(C)c3c2C)cc1 (stereo not drawn)
742 | CSc1cccc(NC(=O)Cn2nc(C(=O)N3CCOCC3)cc2C2CC2)c1
863 | CN(Cc1ccccc1)C(=O)C1CC(=O)N(CCc2c[nH]c3ccc(Cl)cc23)C1 (stereo not drawn)
649 | O=C1CC(C(=O)N2CCN(Cc3ccc4c(c3)OCO4)CC2)CN1CCc1c[nH]c2ccc(F)cc12 (stereo not drawn)
927 | CS(=O)(=O)N1CCCc2cc(C(=O)Nc3ccccc3Br)ccc21

RP-LC retention time [s] | Compound
1070 | COc1ccc(-c2csc(NC(=O)Cn3c(=O)oc4cc(Br)ccc43)n2)cc1
806 | Cc1ccc(-c2ccc(N3CCCC(C(=O)NCc4ccc(Br)cc4)C3)nn2)cc1 (stereo not drawn)
813 | Cc1ccc(-c2coc3cc4oc(=O)c(CC(=O)N5CCC(C(N)=O)CC5)c(C)c4cc23)cc1
655 | CCCN1C(=O)c2cc(C(=O)NCc3ccc(N(C)C)cc3)nn2CC1(C)C(=O)NC1CCCC1 (stereo not drawn)
799 | CCOc1ccc(CC(=O)N2C[C@@H]3C[C@H](NC(=O)c4ccccc4)[C@H]2C3)cc1
668 | CCOc1ccc(CC(=O)NC(C)C(=O)Nc2nc3ccccc3[nH]2)cc1OCC (stereo not drawn)
746 | CC1(C)Oc2ccc(C#N)cc2[C@@H](OC2=CC(=O)CC2)[C@@H]1O
890 | CC(NC(=O)c1ccccc1)c1nc(-c2ccc(NS(=O)(=O)c3cccs3)cc2)no1 (stereo not drawn)
595 | Cc1cccc(NC(=O)c2ccc(=O)n(C)n2)n1
896 | CCOC(=O)N1CCN(C(=O)C2CCN(c3ccc(Sc4ccc(C(C)C)cc4)nn3)CC2)CC1
752 | Cn1c(=O)n([C@H]2CCCN(C(=O)Nc3ccc(F)cc3F)C2)c2ncccc21
1020 | COC1CCC12CCN(S(=O)(=O)c1ccc(C)cc1)CC2 (stereo not drawn)
722 | CCC1(C(=O)Nc2cc(OC)ccc2OC)CCCCC(=O)N1 (stereo not drawn)
547 | COc1ccc(C(=O)NCCS(=O)(=O)NCc2cccnc2)cc1
1220 | CC(C)(C)c1csc(-c2csc(S(=O)(=O)NCc3ccccc3F)c2)n1
875 | CCOC(=O)c1ccccc1NC(=O)Cn1nc2cc(-c3ccccn3)nc(C)n2c1=O
1070 | COc1ccc(-c2ncc3c(n2)CCN(S(=O)(=O)c2ccccc2C)C3)cc1
595 | CC(=O)N1CCc2cc(C(=O)N(C)C)ccc21
683 | COc1ccc(CNc2c(-c3nc(C4CC4)no3)cnc3nc(C)ccc23)cc1OC
680 | O=C(NCc1ccccc1Br)c1cn2c(n1)COCC2
834 | Cc1nc(C2CN(S(=O)(=O)c3cc(F)ccc3F)CC23CCOCC3)no1 (stereo not drawn)

Compound | RP-LC retention time [s]
CC(C)CN1Cc2ccccc2-n2ccnc2C12CCN(C(=O)c1ccn[nH]1)CC2 | 615

— the METLIN SMRT retention time set (Domingo-Almenara et al. 2019)
